# Source: US7772188B2, “Methods and compositions for the treatment of gastrointestinal disorders” (priority 2003, dated 2010)
# Positions of bridges follow the written chain, without caps; N, C: chain ends. Residues, ends and D or L forms follow the SMILES beside them.
# Key:
# [1] = molecular target: T1, intestinal GC-C receptor (Homo sapiens, UniProt P25092); experiment: Intestinal GC-C receptor activity assay (cyclic GMP by EIA in T84 cells); type: cell-based; details: chemically synthesized peptides, FIG. 2
# T1 construct: host or cells: T84 human colon carcinoma cells
# T1 sequence (P25092 24-1073): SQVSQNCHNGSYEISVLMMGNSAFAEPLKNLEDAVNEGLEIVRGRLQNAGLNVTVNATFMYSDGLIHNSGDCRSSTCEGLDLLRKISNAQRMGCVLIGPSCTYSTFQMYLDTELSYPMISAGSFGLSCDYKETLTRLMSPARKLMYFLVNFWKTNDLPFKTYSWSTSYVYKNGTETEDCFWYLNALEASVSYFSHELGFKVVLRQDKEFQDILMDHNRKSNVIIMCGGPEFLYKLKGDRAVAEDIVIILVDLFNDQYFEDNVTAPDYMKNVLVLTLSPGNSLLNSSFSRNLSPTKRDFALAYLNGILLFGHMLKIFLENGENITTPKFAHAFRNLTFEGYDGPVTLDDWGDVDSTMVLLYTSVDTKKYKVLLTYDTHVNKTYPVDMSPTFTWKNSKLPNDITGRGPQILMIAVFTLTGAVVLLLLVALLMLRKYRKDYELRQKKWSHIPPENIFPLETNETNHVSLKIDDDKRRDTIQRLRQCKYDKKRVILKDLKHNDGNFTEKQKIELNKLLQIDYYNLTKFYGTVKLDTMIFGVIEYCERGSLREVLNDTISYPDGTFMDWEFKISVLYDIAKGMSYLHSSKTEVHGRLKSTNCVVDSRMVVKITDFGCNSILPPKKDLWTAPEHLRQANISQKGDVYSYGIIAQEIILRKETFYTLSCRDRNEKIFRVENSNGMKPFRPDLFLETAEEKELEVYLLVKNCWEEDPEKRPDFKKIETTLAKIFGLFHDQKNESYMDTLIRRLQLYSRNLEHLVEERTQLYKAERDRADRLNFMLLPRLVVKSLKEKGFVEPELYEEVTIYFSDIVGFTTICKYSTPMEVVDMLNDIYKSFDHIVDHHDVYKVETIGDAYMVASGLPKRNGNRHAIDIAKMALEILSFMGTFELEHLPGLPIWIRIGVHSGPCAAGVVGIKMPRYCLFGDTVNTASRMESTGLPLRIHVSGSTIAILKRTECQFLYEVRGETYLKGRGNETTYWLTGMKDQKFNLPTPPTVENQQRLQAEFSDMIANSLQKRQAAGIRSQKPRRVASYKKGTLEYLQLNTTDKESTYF
# Experimental: The ability of SEQ ID NO:5, SEQ ID NO:4, and SEQ ID NO:3 to activate the intestinal GC-C receptor was assessed in an assay employing the T84 human colon carcinoma cell line (American Type Culture Collection (Bethesda, Md.)). For the assays cells were grown to confluency in 24-well culture plates with a 1:1 mixture of Ham's F12 medium and Dulbecco's modified Eagle's medium (DMEM), supplemented with 5% fetal calf serum and were used at between passages 54 and 60.
# Briefly, monolayers of T84 cells in 24-well plates were washed twice with 1 ml/well DMEM, then incubated at 37° C. for 10 min with 0.45 ml DMEM containing 1 mM isobutylmethylxanthine (IBMX), a cyclic nucleotide phosphodiesterase inhibitor. Test peptides (50 μl) were then added and incubated for 30 minutes at 37° C. The media was aspirated and the reaction was then terminated by the addition of ice cold 0.5 ml of 0.1N HCl. The samples were held on ice for 20 minutes and then evaporated to dryness using a heat gun or vacuum centrifugation. The dried samples were resuspended in 0.5 ml of phosphate buffer provided in the Cayman Chemical Cyclic GMP EIA kit (Cayman Chemical, Ann Arbor, Mich.). Cyclic GMP was measured by EIA according to procedures outlined in the Cayman Chemical Cyclic GMP EIA kit.
# [2] = tested on: intestinal secretion; experiment: Suckling mouse model of intestinal secretion (SuMi assay); type: in vivo; details: suckling mice; dose response; FIG. 5a/5b
# Experimental: In this model a test compound is administered to suckling mice that are between 7 and 9 days old. After the mice are sacrificed, the gastrointestinal tract from the stomach to the cecum is dissected (“guts”). The remains (“carcass”) as well as the guts are weighed and the ratio of guts to carcass weight is calculated. If the ratio is above 0.09, one can conclude that the test compound increases intestinal secretion. […] The effect of Zelnorm® was also studied.
# [3] = tested on: abdominal response to colorectal distension; experiment: Trinitrobenzenesulphonic acid (TNBS)-induced rectal allodynia model, colorectal distension; type: in vivo, Wistar rats; details: rats, FIG. 7
# Experimental: Male Wistar rats (220-250 g) were premedicated with 0.5 mg/kg of acepromazine injected intraperitoneally (IP) and anesthetized by intramuscular administration of 100 mg/kg of ketamine. Pairs of nichrome wire electrodes (60 cm in length and 80 μm in diameter) were implanted in the striated muscle of the abdomen, 2 cm laterally from the white line. The free ends of electrodes were exteriorized on the back of the neck and protected by a plastic tube attached to the skin. Electromyographic (EMG) recordings were started 5 days after surgery. Electrical activity of abdominal striated muscle was recorded with an electroencephalograph machine (Mini VIII, Alvar, Paris, France) using a short time constant (0.03 sec.) to remove low-frequency signals (<3 Hz).
# Ten days post surgical implantation, trinitrobenzenesulphonic acid (TNBS) was administered to induce rectal inflammation. TNBS (80 mg kg^−1 in 0.3 ml 50% ethanol) was administered intrarectally through a silicone rubber catheter introduced at 3 cm from the anus under light diethyl-ether anesthesia, as described (Morteau et al. 1994 Dig Dis Sci 39:1239). […] Evaluation of rectal sensitivity, as measured by EMG, was performed before (1-2 days) and 3 days following rectal instillation of TNBS.
# The number of spike bursts that corresponds to abdominal contractions was determined per 5 min periods. […]
# [4] = molecular target: T2, GC-C receptors found in rat intestinal mucosa (Rattus norvegicus, UniProt P23897); experiment: biochemical
# T2 sequence (P23897 23-1072): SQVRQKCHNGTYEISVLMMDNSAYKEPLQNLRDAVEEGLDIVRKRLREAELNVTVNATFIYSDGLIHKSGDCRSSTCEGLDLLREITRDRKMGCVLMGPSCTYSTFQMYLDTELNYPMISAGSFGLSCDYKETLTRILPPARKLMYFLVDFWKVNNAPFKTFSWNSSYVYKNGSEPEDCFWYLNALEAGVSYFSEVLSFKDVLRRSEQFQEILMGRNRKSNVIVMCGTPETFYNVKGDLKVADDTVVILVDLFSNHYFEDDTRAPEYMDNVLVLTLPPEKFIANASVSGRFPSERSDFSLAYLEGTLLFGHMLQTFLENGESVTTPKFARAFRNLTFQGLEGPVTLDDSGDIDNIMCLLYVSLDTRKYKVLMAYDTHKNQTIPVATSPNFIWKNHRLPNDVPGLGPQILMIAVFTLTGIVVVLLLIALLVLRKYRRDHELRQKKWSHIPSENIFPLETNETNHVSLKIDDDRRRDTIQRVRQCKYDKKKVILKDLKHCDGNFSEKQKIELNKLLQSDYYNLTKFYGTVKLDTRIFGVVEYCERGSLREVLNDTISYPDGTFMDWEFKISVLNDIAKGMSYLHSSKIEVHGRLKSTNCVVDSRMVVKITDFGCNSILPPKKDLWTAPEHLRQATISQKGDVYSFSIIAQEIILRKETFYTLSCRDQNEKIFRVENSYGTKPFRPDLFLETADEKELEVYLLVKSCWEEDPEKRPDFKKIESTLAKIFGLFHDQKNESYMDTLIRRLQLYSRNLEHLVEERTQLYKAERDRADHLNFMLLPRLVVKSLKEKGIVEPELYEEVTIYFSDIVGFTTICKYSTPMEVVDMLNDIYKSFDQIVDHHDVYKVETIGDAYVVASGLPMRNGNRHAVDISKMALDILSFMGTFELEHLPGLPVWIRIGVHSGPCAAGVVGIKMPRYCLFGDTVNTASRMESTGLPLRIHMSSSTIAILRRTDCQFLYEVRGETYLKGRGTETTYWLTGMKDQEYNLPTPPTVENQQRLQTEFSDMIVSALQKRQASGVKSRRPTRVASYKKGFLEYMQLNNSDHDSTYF
# Experimental: To determine the affinity of SEQ ID NO:3 for GC-C receptors found in rat intestinal mucosa, a competition binding assay was performed using rate intestinal epithelial cells. Epithelial cells from the small intestine of rats were obtained as described by Kessler et al. (J. Biol. Chem. 245: 5281-5288 (1970)). Briefly, animals were sacrificed and their abdominal cavities exposed. The small intestine was rinsed with 300 ml ice cold saline or PBS. 10 cm of the small intestine measured at 10 cm from the pylorus was removed and cut into 1 inch segments. Intestinal mucosa was extruded from the intestine by gentle pressure between a piece of parafilm and a P-1000 pipette tip. Intestinal epithelial cells were placed in 2 ml PBS and pipetted up and down with a 5 ml pipette to make a suspension of cells.
# A competition binding assay was performed based on the method of Giannella et al. (Am. J. Physiol. 245: G492-G498) between [^125I] labeled SEQ ID NO:4 and SEQ ID NO:3. The assay mixture contained: 0.5 ml of DME with 20 mM HEPES-KOH pH 7.0, 0.9 mg of the cell suspension listed above, 21.4 fmol [^125I]-SEQ ID NO:4 (42.8 pM), and different concentrations of competitor SEQ ID NO:3 (0.01 to 1000 nM). […] The filters were washed with 5 ml ice-cold PBS and radioactivity was measured.
# [5] = tested on: PBQ-induced writhing; experiment: Phenylbenzoquinone (PBQ)-induced writhing model
smiles,measurement,setting,value
"C[C@@H]1NC(=O)[C@@H]2CCCN2C(=O)[C@H](CC(N)=O)NC(=O)[C@@H]2CSSC[C@H](N)C(=O)N[C@H]3CSSC[C@H](NC1=O)C(=O)N[C@@H]([C@@H](C)O)C(=O)NCC(=O)N[C@H](C(=O)N[C@@H](Cc1ccc(O)cc1)C(=O)O)CSSC[C@H](NC(=O)[C@H](Cc1ccc(O)cc1)NC(=O)[C@H](CCC(=O)O)NC3=O)C(=O)N2 [SEQ ID NO:3, Cys Cys Glu Tyr Cys Cys Asn Pro Ala Cys Thr Gly Cys Tyr] (H-CCEYCCNPACTGCY-OH; disulfide 1-6, 2-10, 5-13; N-terminus and C-terminus assumed)",activity in GC-C receptor activity assay,[1],activity comparable to SEQ ID NO:4
same,intestinal secretion (guts to carcass weight ratio),[2],increase intestinal secretion
same,"abdominal response (abdominal contractions, EMG)",[3]; 0.3 μg/kg,Significant decreases in abdominal response
same,"abdominal response (abdominal contractions, EMG)",[3]; 3 μg/kg,Significant decreases in abdominal response
same,Kd,[4],4.5 nM
same,antinociceptive effect relative to indomethacin,"[5]; mouse PBQ writhing, visceral pain model",antinociceptive effects in this visceral pain model comparable to the intermediate doses of indomethacin
same,writhings compared to the vehicle control,"[5]; mouse, oral, 2.5 mg/kg dose, FIG. 8b",Significant reductions in writhings
